Laboratory results reported in patent US9994551B2, “Pyridazine derivatives as RORc modulators” (Genentech, Inc., priority 2015, dated 2018).

The molecules below were run against T1, RORc ligand binding domain (Homo sapiens, UniProt P51449) (assay: In vitro RORc ligand binding assay (25-[3H]hydroxycholesterol displacement, filter binding)).
T1 construct: host or cells: E. coli
T1 sequence (P51449 269-508 limits assumed): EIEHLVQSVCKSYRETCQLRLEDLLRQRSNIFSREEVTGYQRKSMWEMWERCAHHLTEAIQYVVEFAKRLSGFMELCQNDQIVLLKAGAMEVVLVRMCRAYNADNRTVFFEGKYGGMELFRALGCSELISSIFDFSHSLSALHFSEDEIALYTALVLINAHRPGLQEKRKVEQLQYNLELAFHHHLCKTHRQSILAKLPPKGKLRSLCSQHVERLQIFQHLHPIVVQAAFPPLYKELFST
Experimental: This assay was used to determine a compound's potency in inhibiting activity of RORc by determining, Kiapp, IC50, or percent inhibition values.
On day of the assay, 100 uL of 0.05% CHAPS (in deionized H2O) was added to all wells of the GFB Unifilter plate and allowed soak for 1 h. A wash buffer of 50 mM HEPES (pH 7.4), 150 mM NaCl, and 5 mM MgCl2 was prepared to wash the filter plate. To prepare an assay buffer, BSA was added to the wash buffer to reach 0.01% and DTT was added to reach 1 mM.
The 20× compound stocks were diluted in DMSO with Assay Buffer 4-fold to reach 5× the final test concentration in 25% DMSO (10 uL compound+30 uL Assay Buffer). Solutions were mixed by aspiration several times with a pipette set on 50 uL volume. For the assay, 10 uL of 5× compound stock solutions in 25% DMSO were added to the assay plate in duplicate.
For two point screening, 10 mM stock compound solutions were diluted in DMSO to obtain 200 uM (20× the high test concentration) and then diluted 10-fold further to reach 20 uM (20× the low test concentration). The 20× stocks were diluted 4-fold with Assay Buffer (10 uL compound+30 uL Assay Buffer) to reach 5× the test concentrations (50 uM and 5 uM) and 10 uL were added to two assay plates for the duplicate wells. With each concentration tested on 2 plates, each set of 80 compounds used 4 assay plates (1 uM and 10 uM, with n=2).
For 25-hydroxycholesterol in 25% DMSO/75% Assay Buffer; 10 uL per well was used for NSB samples. Wells for Total Binding and No Receptor sample determination contained 10 uL of 25% DMSO/75% Assay Buffer per well.
Add 20 uL to all wells to reach 6 nM final concentration in the assay.
Stock receptor solution was diluted in assay buffer to obtain 1.5 ug/mL in Assay Buffer. 20 uL was added to all wells. For No Receptor samples, 20 uL Assay Buffer was substituted for receptor solution.
Assay plates were 96-well polypropylene V-bottom plates. 10 uL of 5× compound in 25% DMSO/75% Assay Buffer was added to Test wells. 10 uL of 25% DMSO/75% Assay Buffer was added to Total Binding or No Receptor wells. 10 uL of 5 uM 25-hydroxycholesterol in 25% DMSO/75% Assay Buffer was added to NSB wells. […] 20 uL of 1.5 ug/mL RORc receptor was added to wells (or 40 uL Assay Buffer to No R wells). Following addition to the wells, the plates were incubated 3 h at 25° C.
Using a Packard Filtermate Harvester, the filter plate were washed 4 times following transfer of the incubated samples. Plates were dry-filtered completely (2 h at 50° C. or overnight at room temperature). 50 uL Microscint 0 was added to all wells and read on Topcount protocol Inverted.

Row | Structure (SMILES) | IC50 [nM]
1 | CC1(C)[C@H]2CC[C@]1(c1nnc(C(N)=O)o1)c1nnc(-c3c(F)cccc3F)cc12 [Compound 2, 5-((5R,8R)-3-(2,6-difluorophenyl)-9,9-dimethyl-5,6,7,8-tetrahydro-5,8-methanocinnolin-8-yl)-1,3,4-oxadiazole-2-carboxamide] | 520
2 | CN1CCN(C(N)=O)[C@@H]([C@@]23CC[C@@H](c4cc(-c5c(F)cccc5F)nnc42)C3(C)C)C1 [Compound 181, 2-[5-(2,6-difluorophenyl)-11,11-dimethyl-3,4-diazatricyclo[6.2.1.02,7]undeca-2,4,6-trien-1-yl]-4-methyl-piperazine-1-carboxamide] | 62
3 | CC[C@H](C[C@@]12CC[C@@H](c3cc(-c4c(F)cccc4F)nnc31)C2(C)C)C(N)=O [Compound 4, (R)-2-(((5R,8R)-3-(2,6-difluorophenyl)-9,9-dimethyl-5,6,7,8-tetrahydro-5,8-methanocinnolin-8-yl)methyl)butanamide] | 82.4
4 | Cc1noc(N2CCO[C@@H]([C@@]34CC[C@@H](c5cc(-c6c(F)cccc6F)nnc53)C4(C)C)C2)n1 [Compound 91, (S)-2-((5R,8R)-3-(2,6-difluorophenyl)-9,9-dimethyl-5,6,7,8-tetrahydro-5,8-methanocinnolin-8-yl)-4-(3-methyl-1,2,4-oxadiazol-5-yl)morpholine] | 101
5 | C[C@H](O)C(=O)N(C)[C@@]12CC[C@@H](c3cc(-c4c(F)cccc4F)nnc31)C2(C)C [Compound 1, (S)-N-((5R,8R)-3-(2,6-difluorophenyl)-9,9-dimethyl-5,6,7,8-tetrahydro-5,8-methanocinnolin-8-yl)-2-hydroxy-N-methylpropanamide] | 920
6 | CC1(C)[C@H]2CC[C@]1(OC1(CC(N)=O)CC1)c1nnc(-c3c(F)cccc3F)cc12 [Compound 46, 2-(1-(((5S,8R)-3-(2,6-difluorophenyl)-9,9-dimethyl-5,6,7,8-tetrahydro-5,8-methanocinnolin-8-yl)oxy)cyclopropyl)acetamide] | 74.8
7 | CC1(C)[C@H]2CC[C@]1(Oc1cccnc1)c1nnc(-c3c(F)cccc3F)cc12 [Compound 27, (5S,8R)-3-(2,6-difluorophenyl)-9,9-dimethyl-8-(pyridin-3-yloxy)-5,6,7,8-tetrahydro-5,8-methanocinnoline] | 67
8 | CC[C@H](O[C@@]12CC[C@@H](c3cc(-c4c(F)cccc4F)nnc31)C2(C)C)C(=O)OC [Compound 110, methyl (2S)-2-[[(1R,8S)-5-(2,6-difluorophenyl)-11,11-dimethyl-3,4-diazatricyclo[6.2.1.02,7]undeca-2,4,6-trien-1-yl]oxy]butanoate] | 100
9 | CN1CCO[C@H]([C@@]23CC[C@@H](c4cc(-c5c(F)cccc5F)nnc42)C3(C)C)C1 [Compound 67, (R)-2-((5R,8R)-3-(2,6-difluorophenyl)-9,9-dimethyl-5,6,7,8-tetrahydro-5,8-methanocinnolin-8-yl)-4-methylmorpholine] | 215
10 | CC1(C)[C@H]2CC[C@]1([C@@H]1CN(C(=O)CO)CCO1)c1nnc(-c3c(F)cccc3F)cc12 [Compound 75, 1-((R)-2-((5R,8R)-3-(2,6-difluorophenyl)-9,9-dimethyl-5,6,7,8-tetrahydro-5,8-methanocinnolin-8-yl)morpholino)-2-hydroxyethanone] | 234
11 | Cc1nnc(CO[C@@]23CC[C@@H](c4cc(-c5c(F)cccc5F)nnc42)C3(C)C)o1 [Compound 8, 2-((((5S,8R)-3-(2,6-difluorophenyl)-9,9-dimethyl-5,6,7,8-tetrahydro-5,8-methanocinnolin-8-yl)oxy)methyl)-5-methyl-1,3,4-oxadiazole] | 140
12 | CC[C@H](O[C@@]12CC[C@@H](c3cc(-c4c(F)cccc4F)nnc31)C2(C)C)c1nnc(C)o1 [Compound 21, 2-((S)-1-(((5S,8R)-3-(2,6-difluorophenyl)-9,9-dimethyl-5,6,7,8-tetrahydro-5,8-methanocinnolin-8-yl)oxy)propyl)-5-methyl-1,3,4-oxadiazole] | 51

Stronger by IC50, values ahead:

Row | IC50 [nM] | Structure (SMILES)
13 | 37 | CC1(C)[C@H]2CC[C@]1([C@H]1CN(c3nc(CO)co3)CCO1)c1nnc(-c3c(F)cccc3F)cc12 [Compound 128, [2-[2-[5-(2,6-difluorophenyl)-11,11-dimethyl-3,4-diazatricyclo[6.2.1.02,7]undeca-2,4,6-trien-1-yl]morpholin-4-yl]oxazol-4-yl]methanol]
14 | 45.3 | CC[C@@H](O[C@@]12CC[C@@H](c3cc(-c4c(F)cccc4F)nnc31)C2(C)C)C(=O)NCc1nnc(C)o1 [Compound 59, (R)-2-(((5S,8R)-3-(2,6-difluorophenyl)-9,9-dimethyl-5,6,7,8-tetrahydro-5,8-methanocinnolin-8-yl)oxy)-N-((5-methyl-1,3,4-oxadiazol-2-yl)methyl)butanamide]
15 | 15 | C[C@@H](O)CNC(=O)N1CCC[C@H]([C@@]23CC[C@@H](c4cc(-c5c(F)cccc5F)nnc42)C3(C)C)C1 [Compound 154, 3-[5-(2,6-difluorophenyl)-11,11-dimethyl-3,4-diazatricyclo[6.2.1.02,7]undeca-2,4,6-trien-1-yl]-N-(2-hydroxypropyl)piperidine-1-carboxamide]
16 | 13 | CNC(=O)N1CCC[C@H]([C@@]23CC[C@@H](c4cc(-c5c(F)cccc5F)nnc42)C3(C)C)C1 [Compound 96, (R)-3-((5R,8R)-3-(2,6-difluorophenyl)-9,9-dimethyl-5,6,7,8-tetrahydro-5,8-methanocinnolin-8-yl)-N-methylpiperidine-1-carboxamide]
17 | 19 | Cc1n[nH]c(N2CCO[C@H]([C@@]34CC[C@@H](c5cc(-c6c(F)cccc6F)nnc53)C4(C)C)C2)n1 [Compound 142, 2-[5-(2,6-difluorophenyl)-11,11-dimethyl-3,4-diazatricyclo[6.2.1.02,7]undeca-2,4,6-trien-1-yl]-4-(3-methyl-1H-1,2,4-triazol-5-yl)morpholine]
18 | 4.9 | CC1(C)[C@H]2CC[C@]1([C@H]1CCCN(C(N)=O)C1)c1nnc(-c3c(F)cccc3F)cc12 [Compound 120, 3-[5-(2,6-difluorophenyl)-11,11-dimethyl-3,4-diazatricyclo[6.2.1.02,7]undeca-2,4,6-trien-1-yl]piperidine-1-carboxamide]
19 | 15.4 | CCC[C@@H](O[C@@]12CC[C@@H](c3cc(-c4c(F)cccc4F)nnc31)C2(C)C)C(N)=O [Compound 49, (R)-2-(((5S,8R)-3-(2,6-difluorophenyl)-9,9-dimethyl-5,6,7,8-tetrahydro-5,8-methanocinnolin-8-yl)oxy)pentanamide]
20 | 7.7 | C[C@H](O)CNC(=O)N1CCC[C@H]([C@@]23CC[C@@H](c4cc(-c5c(F)cccc5F)nnc42)C3(C)C)C1 [Compound 151, 3-[5-(2,6-difluorophenyl)-11,11-dimethyl-3,4-diazatricyclo[6.2.1.02,7]undeca-2,4,6-trien-1-yl]-N-(2-hydroxypropyl)piperidine-1-carboxamide]
21 | 21 | CC1(C)[C@H]2CC[C@]1([C@H]1CN(C(=O)c3c[nH]c(=O)cn3)CCO1)c1nnc(-c3c(F)cccc3F)cc12 [Compound 119, 5-[2-[5-(2,6-difluorophenyl)-11,11-dimethyl-3,4-diazatricyclo[6.2.1.02,7]undeca-2,4,6-trien-1-yl]morpholine-4-carbonyl]-1H-pyrazin-2-one]
22 | 19.8 | CC[C@H](CO)O[C@@]12CC[C@@H](c3cc(-c4c(F)cccc4F)nnc31)C2(C)C [Compound 35, (R)-2-(((5S,8R)-3-(2,6-difluorophenyl)-9,9-dimethyl-5,6,7,8-tetrahydro-5,8-methanocinnolin-8-yl)oxy)butan-1-ol]
23 | 44.5 | CC[C@H](O[C@@]12CC[C@@H](c3cc(-c4c(F)cccc4F)nnc31)C2(C)C)C(=O)NCCO [Compound 23, (S)-2-(((5S,8R)-3-(2,6-difluorophenyl)-9,9-dimethyl-5,6,7,8-tetrahydro-5,8-methanocinnolin-8-yl)oxy)-N-(2-hydroxyethyl)butanamide]
